Reference: patent publication US7829665B2 (priority 2005, dated 2010)
Where two headings read alike, the source gives them in different places.

Experiments:
[1] = test system: HCV sub-genomic replicon in GS4.3 cells (HuH-7 hepatoma cells); test: Quantitation by ELISA of Neomycin phosphotransferase II (NPTII) in the HCV sub-genomic replicon, GS4.3; type: cell-based, hepatitis C virus; settings: Hepatitis C virus, Huh-7; GS4.3 cells, 72 h incubation, NPTII ELISA; read-out: Replicon EC50
Method in brief: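 HuH-7 GS4.3 cells carrying HCV sub-genomic replicon 1377/NS3-3′, treated 72 h at 37 °C without G418 with 3-fold dilutions from 10 μM to 56 pM (1% DMSO). NPTII in cell lysates measured by direct ELISA with TMB readout at 450 nm. EC50 from 4-parameter fit of percent DMSO-control signal.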

[2] = target: T1, full-length NS3/NS4A-2 (HCV NS3 protease) (Hepatitis C virus genotype 1a, UniProt P27958); test: NS3-NS4 protease assay / NS3 inhibition assay (RETS1 substrate, fluorescence kinetic read); type: biochemical
T1 construct: Recombinant E. coli or Baculovirus full-length NS3 was diluted to 3.33 μM with assay buffer; made in house; host or cells: E. coli or baculovirus (BV) expression system
Method in brief: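 Full-length NS3 from E. coli (2 nM in assay) or baculovirus (3 nM) was precomplexed with excess NS4A-2 peptide, then preincubated 10 min at room temperature with serially diluted compounds starting at 50 microM. Reaction was started with RETS1 substrate at 8 μM before addition and read kinetically for 30 min (ex 335/em 495 nm). Four-parameter IC50s were converted to Ki by Cheng-Prusoff using Km 2.03 μM (E. coli) or 1.74 μM (BV).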

[3] = recombinant E. coli or Baculovirus full-length NS3 with NS4A-2, read-out: NS3-NS4 IC50

T1 sequence (P27958 1027-1657): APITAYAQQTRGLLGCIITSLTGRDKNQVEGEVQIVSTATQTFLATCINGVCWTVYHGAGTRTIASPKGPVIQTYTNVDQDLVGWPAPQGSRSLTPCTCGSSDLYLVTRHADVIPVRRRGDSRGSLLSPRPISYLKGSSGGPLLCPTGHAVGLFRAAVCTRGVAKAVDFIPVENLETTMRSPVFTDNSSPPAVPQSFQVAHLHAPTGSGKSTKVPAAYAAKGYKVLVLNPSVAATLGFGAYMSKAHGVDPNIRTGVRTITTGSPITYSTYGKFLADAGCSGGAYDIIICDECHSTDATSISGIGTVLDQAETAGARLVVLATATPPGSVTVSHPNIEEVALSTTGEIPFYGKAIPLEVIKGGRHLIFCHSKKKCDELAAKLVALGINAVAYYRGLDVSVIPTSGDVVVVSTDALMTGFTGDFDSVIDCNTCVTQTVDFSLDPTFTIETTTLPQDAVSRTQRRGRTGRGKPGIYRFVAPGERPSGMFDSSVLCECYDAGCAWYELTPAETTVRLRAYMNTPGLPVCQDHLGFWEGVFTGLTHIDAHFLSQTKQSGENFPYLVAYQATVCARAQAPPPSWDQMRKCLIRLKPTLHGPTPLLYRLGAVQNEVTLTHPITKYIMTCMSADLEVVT

Structure (SMILES) | EC50 [1] | IC50 [2, 3] | IC50 [2]
CC(C)(C)OC(=O)N[C@H]1CCCCC/C=C\[C@@H]2C[C@@]2(C(=O)NS(=O)(=O)c2cccs2)NC(=O)[C@@H]2C[C@@H](OC(=O)N3Cc4cccc(Cl)c4C3)CN2C1=O [Compound 166] | < 100 nM | < 100 nM | 
CC(C)(C)OC(=O)N[C@H]1CCCCC/C=C\[C@@H]2C[C@@]2(C(=O)NS(=O)(=O)c2cc(Cl)sc2Cl)NC(=O)[C@@H]2C[C@@H](OC(=O)N3Cc4cccc(Cl)c4C3)CN2C1=O [Compound 172] | < 100 nM | < 100 nM | 
O=C(N[C@H]1CCCCC/C=C\[C@@H]2C[C@@]2(C(=O)O)NC(=O)[C@@H]2C[C@@H](OC(=O)N3Cc4cccc(F)c4C3)CN2C1=O)C1CCC1 [Compound 122] | < 10000 nM | < 100 nM | 
CC(C)(C)OC(=O)N[C@H]1CCCCC/C=C\[C@@H]2C[C@@]2(C(=O)NS(=O)(=O)C2CC2)NC(=O)[C@@H]2C[C@@H](OC(=O)N3Cc4c(Cl)ccc(Cl)c4C3)CN2C1=O [Compound 145] | < 100 nM | < 100 nM | 
CN(C)C(=S)N[C@H]1CCCCC/C=C\[C@@H]2C[C@@]2(C(=O)NS(=O)(=O)C2CC2)NC(=O)[C@@H]2C[C@@H](OC(=O)N3Cc4cccc(F)c4C3)CN2C1=O [Compound 922] | < 1000 nM | < 100 nM | 
CC(C)(C)OC(=O)N[C@H]1CCCCC/C=C\[C@@H]2C[C@@]2(C(=O)NCC2(O)CC2)NC(=O)[C@@H]2C[C@@H](OC(=O)N3Cc4cccc(F)c4C3)CN2C1=O [Compound 619] | < 1000 nM | < 100 nM | 
CC(C)(C)OC(=O)N[C@H]1CCCC(F)(F)C/C=C\[C@@H]2C[C@@]2(C(=O)O)NC(=O)[C@@H]2C[C@@H](OC(=O)N3Cc4cccc(F)c4C3)CN2C1=O [Compound 1006, (2R,6S,13aS,14aR,16aS,Z)-6-(tert-butoxycarbonylamino)-9,9-difluoro-2-(4-fluoroisoindoline-2-carbonyloxy)-5,16-dioxo-1,2,3,5,6,7,8,9,10,11,13a,14,14a,15,16,16a-hexadecahydrocyclopropa(e)prrolo[1,2-a][1,4]diazacyclopentadecine-14a-carboxylic acid] | < 10000 nM | < 100 nM | 
CC[C@@H]1C[C@H]2C(=O)N[C@]3(C(=O)NS(=O)(=O)C4CC4)C[C@H]3/C=C\CCCCC[C@H](NC(=O)OC3CCCC3)C(=O)N2C1 [Compound 314] | < 10000 nM | < 100 nM | 
CC(C)(C)OC(=O)N[C@H]1CCCCC/C=C\[C@@H]2C[C@@]2(C(=O)NS(=O)(=O)C2CC2)NC(=O)[C@@H]2C[C@@H](OC(=O)N3CCc4c(F)ccc(F)c4C3)CN2C1=O [Compound 258] | < 100 nM | < 100 nM | 
O=C(N[C@H]1CCCCC/C=C\[C@@H]2C[C@@]2(C(=O)NS(=O)(=O)C2CC2)NC(=O)[C@@H]2C[C@@H](OC(=O)N3Cc4ccncc4C3)CN2C1=O)OC1CCCC1 [Compound 155] | < 1000 nM | < 100 nM | 
O=C(N[C@H]1CCCCC/C=C\[C@@H]2C[C@@]2(C(=O)NS(=O)(=O)C2CC2)NC(=O)[C@@H]2C[C@@H](OC(=O)N3Cc4ccc(OCCN5CCOCC5)cc4C3)CN2C1=O)OC1CCCC1 [Compound 132] | < 100 nM | < 100 nM | 
O=C1N[C@]2(C(=O)NS(=O)(=O)C3CC3)C[C@H]2/C=C\CCCCC[C@H](NCC(F)(F)F)C(=O)N2C[C@H](OC(=O)N3Cc4cccc(F)c4C3)C[C@@H]12 [Compound 921] | < 1000 nM | < 100 nM | 
CC(C)(C)OC(=O)N[C@H]1CCCCC/C=C\[C@@H]2C[C@@]2(C(=O)NCC#N)NC(=O)[C@@H]2C[C@@H](OC(=O)N3Cc4cccc(F)c4C3)CN2C1=O [Compound 615] | < 10000 nM | < 1000 nM | 
O=C(N[C@H](C(=O)N[C@H]1CCCCC/C=C\[C@@H]2C[C@@]2(C(=O)NS(=O)(=O)C2CC2)NC(=O)[C@@H]2C[C@@H](OC(=O)N3Cc4cccc(Cl)c4C3)CN2C1=O)C1CCCCC1)c1cnccn1 [Compound 263] | < 100 nM | < 100 nM | 
O=C1N[C@]2(C(=O)NS(=O)(=O)C3CC3)C[C@H]2/C=C\CCCCC[C@H](Nc2c(N3CCCC3)c(=O)c2=O)C(=O)N2C[C@H](OC(=O)N3Cc4cccc(F)c4C3)C[C@@H]12 [Compound 197] | < 10000 nM | < 100 nM | 
NC(=S)N[C@H]1CCCCC/C=C\[C@@H]2C[C@@]2(C(=O)NS(=O)(=O)C2CC2)NC(=O)[C@@H]2C[C@@H](OC(=O)N3Cc4cccc(F)c4C3)CN2C1=O [Compound 923] | < 1000 nM | < 100 nM | 
CCCC1(S(=O)(=O)NC(=O)[C@@]23C[C@H]2/C=C\CCCCC[C@H](NC(=O)OC(C)(C)C)C(=O)N2C[C@H](OC(=O)N4Cc5ccccc5C4)C[C@H]2C(=O)N3)CC1 [Compound 104] | < 100 nM | < 100 nM | 
CC(C)(C)OC(=O)N[C@H]1CCCC(F)(F)C/C=C\[C@@H]2C[C@@]2(C(=O)NS(=O)(=O)C2CC2)NC(=O)[C@@H]2C[C@@H](OC(=O)N3Cc4cccc(F)c4C3)CN2C1=O [Compound 1008, (2R,6S,13aS,14aR,16aS,Z)-6-(tert-butoxycarbonylamino)-14a-(cyclopropylsulfonylcarbamoyl)-9,9-difluoro-5,16-dioxo-1,2,3,5,6,7,8,9,10,11,13a,14,14a,15,16,16a-hexadecahydrocyclopropa(e)prrolo[1,2-a][1,4]diazacyclopentadecine 2-yl 4-fluoroisoindoline-2-carboxylate] | < 100 nM | < 100 nM | 
CC(C)(C)OC(=O)N[C@H]1CCCCC/C=C\[C@@H]2C[C@@]2(C(=O)Nc2n[nH]cc2C2CC2)NC(=O)[C@@H]2C[C@@H](OC(=O)N3Cc4cccc(F)c4C3)CN2C1=O [Compound 636] | < 100 nM | < 1000 nM | 
O=C(N[C@H]1CCCCC/C=C\[C@@H]2C[C@@]2(C(=O)NS(=O)(=O)C2CCCC2)NC(=O)[C@@H]2C[C@@H](OC(=O)N3CCc4ccccc4C3)CN2C1=O)OC1CCCC1 [Compound 186] | < 1000 nM | < 100 nM | 
CC(C)(C)c1csc(N[C@H]2CCCCC/C=C\[C@@H]3C[C@@]3(C(=O)NS(=O)(=O)C3CC3)NC(=O)[C@@H]3C[C@@H](OC(=O)N4Cc5cccc(F)c5C4)CN3C2=O)n1 [Compound 925] | < 100 nM | < 100 nM | 
COc1cc2c(cc1OC)CN(C(=O)O[C@@H]1C[C@H]3C(=O)N[C@]4(C(=O)NS(=O)(=O)N5CCOCC5)C[C@H]4/C=C\CCCCC[C@H](NC(=O)OC(C)(C)C)C(=O)N3C1)CC2 [Compound 208] | < 10000 nM | < 100 nM | 
N[C@H]1CCCCC/C=C\[C@@H]2C[C@@]2(C(=O)NS(=O)(=O)NC2CCCC2)NC(=O)[C@@H]2C[C@@H](OC(=O)N3Cc4cccc(Cl)c4C3)CN2C1=O [Compound 221] | < 10000 nM | < 100 nM | 
CCOC1(S(=O)(=O)NC(=O)[C@@]23C[C@H]2/C=C\CCCCC[C@H](N)C(=O)N2C[C@H](OC(=O)N4Cc5cccc(Cl)c5C4)C[C@H]2C(=O)N3)CC1 [Compound 167] | < 10000 nM |  | < 100 nM
O=C(N[C@H]1CCCCC/C=C\[C@@H]2C[C@@]2(C(=O)NS(=O)(=O)N2CC(F)(F)C2)NC(=O)C2C[C@@H](OC(=O)N3Cc4ccccc4C3)CN2C1=O)OC1CCCC1 (stereo partly shown) [Compound 230] | < 1000 nM | < 100 nM | 
CC(C)(C)OC(=O)N[C@H]1CCCCC/C=C\[C@@H]2C[C@@]2(C(=O)NS(=O)(=O)N2CCOCC2)NC(=O)[C@@H]2C[C@@H](OC(=O)N3Cc4cccc(Cl)c4C3)CN2C1=O [Compound 207] | < 100 nM | < 100 nM | 
